# Patent publication US6441053B1, “Inhibitors of glycogen synthase kinase-3 and methods for identifying and using the same” (The Trustees of the University of Pennsylvania, priority 1996, dated 2002)
# Where two headings read alike, the source gives them in different places.
# Columns and labels:
# GSK-3β = GSK-3β (Oryctolagus cuniculus, UniProt G1T8E2); test: In vitro GSK-3β activity assay (32P incorporation into substrate); format: biochemical, rabbit; conditions: for inhibition of phosphorylation of peptide substrate by GSK-3β: 20 mM of the salt in the assay mixture; for GSK-3β phosphorylation of I-2: 20 mM salt, GS-2 and τ protein phosphorylation not inhibited
# Chain of GSK-3β (G1T8E2 1-432): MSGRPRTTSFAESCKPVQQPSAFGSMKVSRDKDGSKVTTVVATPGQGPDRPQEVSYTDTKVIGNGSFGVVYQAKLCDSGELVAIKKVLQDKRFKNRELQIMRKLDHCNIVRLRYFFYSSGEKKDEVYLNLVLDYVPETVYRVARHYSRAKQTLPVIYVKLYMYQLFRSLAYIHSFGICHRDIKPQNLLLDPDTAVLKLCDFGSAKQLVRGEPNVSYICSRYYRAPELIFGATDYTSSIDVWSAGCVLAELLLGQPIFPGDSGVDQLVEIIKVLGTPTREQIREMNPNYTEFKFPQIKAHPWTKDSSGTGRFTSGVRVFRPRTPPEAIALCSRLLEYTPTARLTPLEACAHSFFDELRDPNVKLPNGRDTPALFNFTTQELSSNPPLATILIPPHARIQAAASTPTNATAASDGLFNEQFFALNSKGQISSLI
# Description: GSK-3β was assayed as described in the following paragraph using 0.5-1.0 units of GSK-3β per assay. […] GSK-3 buffer comprises 20 mM Tris-HCl, 10 mM MgCl2, 5 mM dithiothreitol, and has a pH of 7.5 at 20° C.
# The assay mixture comprised 1×GSK-3 buffer, an amount of a kinase enzyme corresponding to 0.5-1.0 unit of activity, a substrate, and 200 μM [γ^32P]-ATP (approximately 500 μCi/μmol). The assay mixture was incubated for a selected period of time following which incorporation of ^32P into the substrate was determined by standard methods.
# When I-2 was used as the substrate for […] in the assay, I-2 was present at a concentration of 50 μg/ml. […] The activities of protein kinase A (PKA), mitogen-activating protein kinase (ERK-1/MAP kinase), and casein kinase II (CKII) were assayed under conditions similar to those used to assay […] activity, except that β-mercaptoethanol was included in the PKA assays.
# IMPase = IMPase (Homo sapiens, UniProt P29218); conditions: Atack et al., 1993; cited from earlier work
# Chain of IMPase (P29218 whole entry): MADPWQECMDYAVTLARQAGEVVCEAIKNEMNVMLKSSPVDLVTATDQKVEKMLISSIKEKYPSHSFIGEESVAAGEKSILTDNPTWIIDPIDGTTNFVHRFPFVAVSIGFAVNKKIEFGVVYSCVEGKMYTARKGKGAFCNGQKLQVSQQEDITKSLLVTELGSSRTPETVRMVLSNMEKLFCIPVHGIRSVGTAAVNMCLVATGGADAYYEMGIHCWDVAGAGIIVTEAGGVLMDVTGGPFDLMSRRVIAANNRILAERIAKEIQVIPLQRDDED
# Xenopus laevis embryo = test: Dorsalization and development of treated or microinjected Xenopus embryos; format: in vivo
# Description: Xenopus eggs were fertilized in vitro according to well established protocols (Peng, 1991, in Appendix A of Methods in Cell Biology, Kay et al., eds., Academic Press Inc, San Diego). Microinjection of embryos was performed using embryos at the 1-cell to 32-cell stage, and a volume of 5-10 nl was injected into each embryo.
# L-690,330 was dissolved in water to form a solution having a concentration of L-690,330 in the range of 0.1 to 10 mM, and 5 to 10 nl of the L-690,330 solution was injected into the ventral vegetal region of 4, 8, 16, and 32 cell embryos. All four cells of individual 4-cell embryos were injected in separate experiments.
# [1] = target: T1, inositol monophosphatase (IMPase) (Xenopus laevis, UniProt P29219); test: IMPase activity in lysates prepared from Xenopus embryos; format: biochemical
# T1 construct: The thirty embryos were then lysed in 300 μl of IMPB; endogenous in cells; host or cells: Xenopus embryos (32-cell stage lysate supernatant; 8- to 16-cell stage embryos injected in vivo)
# T1 sequence (P29219 whole entry): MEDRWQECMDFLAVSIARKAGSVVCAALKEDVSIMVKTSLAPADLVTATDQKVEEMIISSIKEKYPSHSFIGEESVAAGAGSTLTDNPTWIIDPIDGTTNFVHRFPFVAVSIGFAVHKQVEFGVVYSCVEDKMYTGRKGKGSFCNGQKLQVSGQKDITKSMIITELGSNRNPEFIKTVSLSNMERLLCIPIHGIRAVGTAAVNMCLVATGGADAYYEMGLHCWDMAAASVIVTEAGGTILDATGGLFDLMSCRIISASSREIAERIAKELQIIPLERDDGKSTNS
# Description: Thirty Xenopus embryos at the 32-cell stage were washed with 1 ml of 50 mM Tris, pH 7.8, 250 mM KCl, 3 mM MgCl2 (IMPB). The thirty embryos were then lysed in 300 μl of IMPB. The lysate was centrifuged for 5 minutes at 20,000×g at 4° C. and the resulting lysate supernatant was recovered. […] Each lysate supernatant mixture was then incubated at room temperature for 5 minutes. One μl of ^3H-inositol-1-phosphate was added to each lysate supernatant mixture, and the incubation was continued for an additional 25 minutes. Each lysate supernatant mixture was then diluted with 1.0 ml of 0.1×MMR, boiled for 5 minutes, and applied to Dowex columns as described (Berridge et al., 1983, Biochem. J. 212:473-482). Inositol was not retained by the Dowex column, and inositol-1-phosphate was eluted by application of 3 ml of 0.1 M formic acid/1.5 M ammonium formate (Berridge et al., 1983, supra). Each assay was repeated two to four times, and similar results were obtained among all replicates.
# [2] = target: T1, inositol monophosphatase (IMPase); test: IMPase activity in vivo in injected ventral-vegetal blastomeres; conditions: 10 nl of 5 mM L-690,330 microinjected into blastomeres
# Description: Following dilution, 10 nl of the diluted ^3H-inositol-1-phosphate solution was injected into a single ventral-vegetal blastomere of an embryo which was at the 8- to 16-cell stage. […] The lysate was prepared and applied to Dowex columns as described above.
# Xenopus embryos = test: Second axis formation in Xenopus embryos injected with DN-GSK-3 mRNA with or without myo-inositol; format: in vivo, Xenopus laevis
# Description: mRNA specifying DN-GSK-3 was microinjected into the subequatorial region of a ventral-vegetal blastomere in an embryo at the 16-cell stage. A volume of either 5 nl or 10 nl was microinjected depending upon the concentration of mRNA in the solution being microinjected. The same procedure was used to microinject myo-inositol into an embryo. In most experiments, 10 embryos were harvested at stage 8 to assess the level of DN-GSK-3protein expressed from the injected mRNA, and the level of DN-GSK-3protein in other embryos was assessed at stage 30-35.
smiles,measurement,setting,value
Cl.N [NH4Cl],inhibition of phosphorylation of peptide substrate by GSK-3β,GSK-3β,Little inhibition
"CC(Oc1ccc(O)cc1)(P(=O)(O)O)P(=O)(O)O [L-690,330]",potency as inhibitor of IMPase activity relative to lithium,IMPase,approximately thousand-fold
same,dorsalization of Xenopus embryo,"Xenopus laevis embryo; 0.3 M LiCl for 6 minutes at 32-cell stage, or injection of 10 nl of 5 mM L-690,330",did not exhibit dorsalization
same,toxicity in microinjected embryos,"Xenopus laevis embryo; highest doses of L-690,330 used",mild nonspecific toxicity
same,effect on development of Xenopus embryos,Xenopus laevis embryo; microinjected embryos,no discernible effect
same,IC50,"[1]; read-out: concentration giving 50% inhibition of in vitro IMPase activity, lysates prepared from Xenopus embryos",~1 µM
same,IC50,"[1]; read-out: concentration of L-690,330 giving approximately 50% inhibition of IMPase activity, FIG. 1 Panel A legend",~1000 µM
same,level of inhibition of IMPase activity in vivo compared with 10 nl of 0.3 M LiCl,[2],several times greater
O[C@H]1[C@H](O)[C@@H](O)[C@H](O)[C@@H](O)[C@H]1O [myo-inositol],effect of coinjection on second axis induction by DN-GSK-3,Xenopus embryos; coinjected with DN-GSK-3 mRNA into ventral-vegetal cell of 16-cell embryos,clearly reduced the frequency and the extent of second axis induction
same,effect on synthesis of DN-GSK-3 protein,Xenopus embryos; in vivo,did not inhibit
Cn1cc(C2=C(c3cn(CCCSC(=N)N)c4ccccc34)C(=O)NC2=O)c2ccccc21 [Ro31-8220],IC50,"GSK-3β; read-out: concentration giving approximately 50% inhibition of GSK-3β activity, assays of Example 1, 0 to 10 μM tested",~0.04 µM
[Cl-].[Cs+] [CsCl],inhibition of phosphorylation of peptide substrate by GSK-3β,GSK-3β,Little inhibition
[Cl-].[Na+] [NaCl],inhibition of phosphorylation of peptide substrate by GSK-3β,GSK-3β,Little inhibition
same,GSK-3β phosphorylation of I-2,GSK-3β,partially inhibited
[Cl-].[K+] [KCl],inhibition of phosphorylation of peptide substrate by GSK-3β,GSK-3β,Little inhibition
same,GSK-3β phosphorylation of I-2,GSK-3β,partially inhibited
